According to article PMC8805605, “Discovery of Dimeric Arylsulfonamides as Potent ADAM8 Inhibitors” (ACS Medicinal Chemistry Letters, 2021):
pIC50: −log10 of the molar value.

Tests used:
[1] = tested on: ADAM8-dependent shedding of CD23 in double-stable HEK cells (ADAM8/CD23); assay: Cell-based CD23 shedding assay (soluble CD23 ELISA); conditions: Homo sapiens, HEK293, 24 h incubation, 125 nM to 10 μM, ELISA of supernatants, read-out: IC50 for shedding of CD23 (soluble CD23 release)
Protocol: Next, these compounds were tested for their ability to inhibit the shedding of an ADAM8-dependent cell surface protein, the low affinity IgE receptor CD23, […]. In brief, a human embryonic kidney (HEK) cell line expressing ADAM8 and CD23[13] was incubated with different concentrations of inhibitors, and the release of soluble CD23 in the cell supernatants was determined by a CD23 enzyme-linked immunosorbent assay (ELISA) (Figure 4).
Figure 4 Effects of new compounds 1–3 and JG26 (125 nM to 10 μM) on the shedding of CD23 in a cell-based assay using double-stable HEK cells (ADAM8/CD23). After the incubation of cells with 1–3 and JG26 for 24 h, cell supernatants were collected and subjected to an ELISA to determine the amount of soluble CD23. Data are the mean values from three independent experiments performed in triplicate. […]
VII. Biological Activity on cells
Cell-based shedding assay
HEK293 cells stably transfected with ADAM8 and CD23 were incubated for 24 h at 37°C in the presence of inhibitors in concentrations indicated in DMEM medium supplemented with 10% fetal calf serum. A human soluble CD23 ELISA (R&D Systems, Biotechne, Wiesbaden) was used to detect ADAM8-dependent release of soluble CD23 in the cell culture medium. ELISA experiments were performed in three independent experiments in triplicates. The relative CD23 release (control = 100%) was determined for all samples. […]

MMP-12 = target: T1, MMP-12 (Homo sapiens, UniProt P39900); assay: MMP-12 fluorometric inhibition assay; format: biochemical; conditions: mean of three independent experiments in duplicate, read-out: In vitro inhibitory activity IC50 on MMP-12
T1 construct: purchased R&D Systems
Protocol: The newly synthesized bivalent derivatives 1–3 were then tested in vitro on human recombinant ADAM8 in comparison with JG26 by a fluorometric assay. The inhibitory activity against a panel of MMPs and ADAM10/17 was determined as well to assess their selectivity profile. […]
VI. Biological Activity on Isolated Enzymes
MMP and ADAM10 inhibition assays.
Recombinant human MMP-14 catalytic domain was a kind gift of Prof. Gillian Murphy (Department of […]
Oncology, University of Cambridge, UK). Pro-MMP-1, pro-MMP-2, and pro-MMP-9, were purchased […]
from Calbiochem (Merck-Millipore). Pro-MMP-12 and ADAM10 were purchased from R&D Systems.
Proenzymes were activated immediately prior to use with p-aminophenylmercuric acetate (APMA 2 […]
mM for 1 h at 37°C for MMP-2 and MMP-1, 1 mM for 1 h at 37°C for MMP-9). Pro-MMP-12 was […]
auto activated by incubating in the fluorometric assay buffer (FAB: Tris 50 mM, pH = 7.5, NaCl 150 […]
mM, CaCl2 10 mM, Brij 35 0.05% and DMSO 1%) for 30 h at 37°C. For assay measurements, each […]
inhibitor stock solution (DMSO, 10 mM) was further diluted in FAB at seven different concentrations.
Activated enzyme (final concentration 0.56 nM for MMP-2, 1.3 nM for MMP-9, 1.0 nM for MMP- […]
14cd, 2.0 nM for MMP-1, 2.3 nM for MMP-12 and 20 nM for ADAM10) and inhibitor solutions were […]
incubated in the assay buffer for 3 h at 25 °C. ADAM10 was incubated for 1 h at 37°C in a different […]
was monitored every 10 sec. for 15 min. recording the increase in fluorescence (λ ex = 325 nm, λ em = […]
400 nm) using a Molecular Devices SpectraMax Gemini XPS plate reader. […]
(RFU). Percent of inhibition was calculated from control reactions without the inhibitor. IC50 was determined using the formula: v i/v o = 1/(1 + [I]/ IC50), where v i is the initial velocity of substrate cleavage in the presence of the inhibitor at concentration [I] and v o is the initial velocity in the absence of the inhibitor. Results were analyzed using SoftMax Pro software (version 5.4.3, Molecular Devices, Sunnyvale, CA) and Prism Software version 5.0 (GraphPad Software, Inc., La Jolla, CA, USA). […]

T1 sequence (P39900 106-470): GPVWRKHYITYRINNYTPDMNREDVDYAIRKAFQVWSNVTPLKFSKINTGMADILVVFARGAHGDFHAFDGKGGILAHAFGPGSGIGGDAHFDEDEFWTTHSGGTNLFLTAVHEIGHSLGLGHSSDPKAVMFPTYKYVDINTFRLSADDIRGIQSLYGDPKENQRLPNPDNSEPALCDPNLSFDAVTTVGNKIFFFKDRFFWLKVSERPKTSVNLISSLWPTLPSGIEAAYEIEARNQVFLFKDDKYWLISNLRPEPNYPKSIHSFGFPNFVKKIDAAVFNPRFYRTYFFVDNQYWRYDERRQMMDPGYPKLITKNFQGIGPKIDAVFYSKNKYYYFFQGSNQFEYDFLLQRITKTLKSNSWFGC

| SMILES | pIC50 [1] | pIC50 (MMP-12) |
| --- | --- | --- |
| O=C(NCCC[C@@H](NS(=O)(=O)c1ccc(OCc2cc(Br)cc(Br)c2)cc1)C(=O)NO)NCCC[C@@H](NS(=O)(=O)c1ccc(OCc2cc(Br)cc(Br)c2)cc1)C(=O)NO [Compound 3] | 6.10 | – |
| NC(=O)NCCC[C@@H](NS(=O)(=O)c1ccc(OCc2cc(Br)cc(Br)c2)cc1)C(=O)NO [JG26, reference compound] | 6.92 | 8.03 |
| O=C(NCCC[C@@H](NS(=O)(=O)c1ccc(OCc2cc(Br)cc(Br)c2)cc1)C(=O)NO)c1cccc(C(=O)NCCC[C@@H](NS(=O)(=O)c2ccc(OCc3cc(Br)cc(Br)c3)cc2)C(=O)NO)c1 [Compound 2] | 6.46 | 7.39 |
| O=C(CCCNC(=O)c1cccc(C(=O)NCCCC(=O)NCCC[C@@H](NS(=O)(=O)c2ccc(OCc3cc(Br)cc(Br)c3)cc2)C(=O)NO)c1)NCCC[C@@H](NS(=O)(=O)c1ccc(OCc2cc(Br)cc(Br)c2)cc1)C(=O)NO [Compound 1] | < 5.82 | 6.62 |
